One molecule from PubChem BioAssay AID1794825 can be followed below.

The experiment deals with Sodium- and chloride-dependent glycine transporter 2 (Homo sapiens) (UniProt Q9Y345). Nature of the experiment: PubChem AID 1794825. Conditions: HEK-293 SLC6A5 OE, FLIPR membrane potential dye.

pEC50: −log10 of the molar value.

Sodium- and chloride-dependent glycine transporter 2 (Homo sapiens), sequence (Q9Y345 whole entry, looked up): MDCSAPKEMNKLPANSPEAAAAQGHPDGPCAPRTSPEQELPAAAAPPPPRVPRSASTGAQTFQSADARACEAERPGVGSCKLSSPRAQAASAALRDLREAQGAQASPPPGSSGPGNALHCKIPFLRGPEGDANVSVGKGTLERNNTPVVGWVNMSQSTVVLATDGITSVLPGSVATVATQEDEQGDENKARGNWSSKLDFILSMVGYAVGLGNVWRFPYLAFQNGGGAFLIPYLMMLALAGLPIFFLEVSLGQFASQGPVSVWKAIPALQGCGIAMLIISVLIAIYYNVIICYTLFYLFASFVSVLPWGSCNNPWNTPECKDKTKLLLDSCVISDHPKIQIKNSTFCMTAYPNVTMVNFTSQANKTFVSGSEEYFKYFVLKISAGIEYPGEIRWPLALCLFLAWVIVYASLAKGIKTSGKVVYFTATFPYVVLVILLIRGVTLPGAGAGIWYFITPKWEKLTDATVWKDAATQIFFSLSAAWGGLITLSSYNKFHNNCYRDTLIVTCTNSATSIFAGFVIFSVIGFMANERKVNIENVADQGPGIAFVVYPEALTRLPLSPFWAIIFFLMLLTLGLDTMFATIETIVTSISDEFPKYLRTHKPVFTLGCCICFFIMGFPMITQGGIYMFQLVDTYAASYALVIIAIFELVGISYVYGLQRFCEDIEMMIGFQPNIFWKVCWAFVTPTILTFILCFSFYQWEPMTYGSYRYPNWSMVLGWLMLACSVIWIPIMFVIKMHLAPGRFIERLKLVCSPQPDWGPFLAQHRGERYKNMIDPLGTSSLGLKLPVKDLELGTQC

Take `NCC(=O)O`: the pEC50 (in general, the EC50 on a negative log10 scale, so that one unit is a factor of ten) was 3.89.
